Legend:
Experiment in all cases: KINOMEscan competition binding
[1] = target: BRAF (Homo sapiens, UniProt P15056); conditions: read-out: %Inh BRAF
[2] = target: KIT-autoinhibited (Homo sapiens, UniProt P10721); conditions: read-out: %Inh KIT-autoinhibited
[3] = target: T1, EPHA1 (Homo sapiens, UniProt P21709); conditions: read-out: %Inh EPHA1
T1 sequence (P21709 26-976): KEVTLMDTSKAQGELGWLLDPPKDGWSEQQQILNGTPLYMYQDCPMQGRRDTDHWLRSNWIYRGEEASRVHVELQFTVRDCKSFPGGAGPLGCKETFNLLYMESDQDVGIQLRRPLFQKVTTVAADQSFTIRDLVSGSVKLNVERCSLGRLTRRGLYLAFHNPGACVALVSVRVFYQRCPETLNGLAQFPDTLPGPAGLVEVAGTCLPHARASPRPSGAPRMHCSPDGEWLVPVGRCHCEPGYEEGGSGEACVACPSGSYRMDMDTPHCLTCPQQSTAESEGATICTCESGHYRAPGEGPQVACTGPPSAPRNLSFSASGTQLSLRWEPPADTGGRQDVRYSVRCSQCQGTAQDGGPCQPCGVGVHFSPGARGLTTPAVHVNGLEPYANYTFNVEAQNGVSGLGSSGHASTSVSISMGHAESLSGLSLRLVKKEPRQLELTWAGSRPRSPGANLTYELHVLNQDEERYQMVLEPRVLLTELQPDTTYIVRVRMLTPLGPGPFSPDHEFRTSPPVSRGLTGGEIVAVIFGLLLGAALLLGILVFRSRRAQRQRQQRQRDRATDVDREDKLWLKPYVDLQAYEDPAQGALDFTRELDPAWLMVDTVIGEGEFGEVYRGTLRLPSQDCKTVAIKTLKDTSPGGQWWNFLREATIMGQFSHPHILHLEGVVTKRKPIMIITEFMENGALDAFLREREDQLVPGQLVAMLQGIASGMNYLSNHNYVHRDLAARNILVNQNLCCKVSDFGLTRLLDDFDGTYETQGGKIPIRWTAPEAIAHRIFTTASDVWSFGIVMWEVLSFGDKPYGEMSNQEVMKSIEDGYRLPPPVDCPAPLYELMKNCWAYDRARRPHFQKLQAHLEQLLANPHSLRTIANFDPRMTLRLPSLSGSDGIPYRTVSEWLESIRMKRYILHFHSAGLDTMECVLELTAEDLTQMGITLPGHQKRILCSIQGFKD

[4] = target: T2, GRK3 (Homo sapiens, UniProt P35626); conditions: read-out: %Inh GRK3
T2 sequence (P35626 1-688): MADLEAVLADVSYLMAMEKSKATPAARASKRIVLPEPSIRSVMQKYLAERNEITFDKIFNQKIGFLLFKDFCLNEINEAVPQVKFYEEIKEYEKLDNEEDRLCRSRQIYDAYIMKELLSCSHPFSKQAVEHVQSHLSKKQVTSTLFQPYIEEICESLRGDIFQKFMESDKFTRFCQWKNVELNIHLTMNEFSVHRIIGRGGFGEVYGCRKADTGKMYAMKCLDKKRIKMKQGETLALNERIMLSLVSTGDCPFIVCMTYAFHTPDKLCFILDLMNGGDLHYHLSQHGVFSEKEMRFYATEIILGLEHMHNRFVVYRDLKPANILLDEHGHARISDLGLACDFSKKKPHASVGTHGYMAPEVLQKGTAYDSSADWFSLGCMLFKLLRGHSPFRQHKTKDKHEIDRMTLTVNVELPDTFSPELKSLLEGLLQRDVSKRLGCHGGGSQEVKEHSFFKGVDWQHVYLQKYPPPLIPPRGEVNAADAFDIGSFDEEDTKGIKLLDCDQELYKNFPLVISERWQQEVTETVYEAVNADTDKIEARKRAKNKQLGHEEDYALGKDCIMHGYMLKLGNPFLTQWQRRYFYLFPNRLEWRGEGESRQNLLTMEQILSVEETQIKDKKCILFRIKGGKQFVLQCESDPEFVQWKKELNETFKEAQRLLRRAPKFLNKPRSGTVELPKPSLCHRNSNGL

[5] = target: LTK (Homo sapiens, UniProt P29376); conditions: read-out: %Inh LTK
LTK, sequence (P29376 17-864): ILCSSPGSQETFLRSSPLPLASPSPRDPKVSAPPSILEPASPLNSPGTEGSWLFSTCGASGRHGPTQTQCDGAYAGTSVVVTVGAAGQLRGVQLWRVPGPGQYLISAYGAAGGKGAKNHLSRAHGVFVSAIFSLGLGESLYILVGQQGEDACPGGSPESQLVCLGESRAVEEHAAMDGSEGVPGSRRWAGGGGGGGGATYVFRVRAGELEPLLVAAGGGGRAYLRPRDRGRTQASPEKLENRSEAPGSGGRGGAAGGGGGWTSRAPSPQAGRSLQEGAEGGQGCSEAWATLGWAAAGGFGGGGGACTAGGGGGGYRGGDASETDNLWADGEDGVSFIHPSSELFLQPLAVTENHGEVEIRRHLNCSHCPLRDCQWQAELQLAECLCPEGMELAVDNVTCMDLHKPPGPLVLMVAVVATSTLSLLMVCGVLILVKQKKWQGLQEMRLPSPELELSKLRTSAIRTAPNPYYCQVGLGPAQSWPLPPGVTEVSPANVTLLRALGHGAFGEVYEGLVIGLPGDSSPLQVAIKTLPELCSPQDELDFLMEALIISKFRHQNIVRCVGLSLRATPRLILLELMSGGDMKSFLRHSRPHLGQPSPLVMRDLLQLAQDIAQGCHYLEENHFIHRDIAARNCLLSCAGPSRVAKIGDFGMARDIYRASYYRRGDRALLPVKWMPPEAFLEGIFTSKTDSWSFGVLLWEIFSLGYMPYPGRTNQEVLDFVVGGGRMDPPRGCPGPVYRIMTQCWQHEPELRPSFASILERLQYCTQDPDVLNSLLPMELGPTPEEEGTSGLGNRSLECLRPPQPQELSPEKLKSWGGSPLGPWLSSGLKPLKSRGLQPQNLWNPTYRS

[6] = target: CLK2 (Homo sapiens, UniProt P49760); conditions: read-out: %Inh CLK2
[7] = target: CAMK1G (Homo sapiens, UniProt Q96NX5); conditions: read-out: %Inh CAMK1G
CAMK1G, sequence (Q96NX5 whole entry): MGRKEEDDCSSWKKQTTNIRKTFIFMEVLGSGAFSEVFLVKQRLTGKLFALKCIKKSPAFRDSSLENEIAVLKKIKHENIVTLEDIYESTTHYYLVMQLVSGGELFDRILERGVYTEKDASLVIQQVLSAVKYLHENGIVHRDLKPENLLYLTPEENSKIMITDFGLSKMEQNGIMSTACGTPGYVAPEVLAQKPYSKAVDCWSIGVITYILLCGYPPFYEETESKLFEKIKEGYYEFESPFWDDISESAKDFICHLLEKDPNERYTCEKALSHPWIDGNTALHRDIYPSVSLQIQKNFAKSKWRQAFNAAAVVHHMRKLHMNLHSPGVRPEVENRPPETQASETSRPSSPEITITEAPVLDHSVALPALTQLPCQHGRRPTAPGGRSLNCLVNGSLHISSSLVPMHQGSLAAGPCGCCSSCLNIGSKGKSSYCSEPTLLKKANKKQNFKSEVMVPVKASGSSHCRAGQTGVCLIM

[8] = target: CSNK1A1 (Homo sapiens, UniProt P48729); conditions: read-out: %Inh CSNK1A1
[9] = target: T3, ACVR1B (Homo sapiens, UniProt P36896); conditions: read-out: %Inh ACVR1B
T3 sequence (P36896 24-505): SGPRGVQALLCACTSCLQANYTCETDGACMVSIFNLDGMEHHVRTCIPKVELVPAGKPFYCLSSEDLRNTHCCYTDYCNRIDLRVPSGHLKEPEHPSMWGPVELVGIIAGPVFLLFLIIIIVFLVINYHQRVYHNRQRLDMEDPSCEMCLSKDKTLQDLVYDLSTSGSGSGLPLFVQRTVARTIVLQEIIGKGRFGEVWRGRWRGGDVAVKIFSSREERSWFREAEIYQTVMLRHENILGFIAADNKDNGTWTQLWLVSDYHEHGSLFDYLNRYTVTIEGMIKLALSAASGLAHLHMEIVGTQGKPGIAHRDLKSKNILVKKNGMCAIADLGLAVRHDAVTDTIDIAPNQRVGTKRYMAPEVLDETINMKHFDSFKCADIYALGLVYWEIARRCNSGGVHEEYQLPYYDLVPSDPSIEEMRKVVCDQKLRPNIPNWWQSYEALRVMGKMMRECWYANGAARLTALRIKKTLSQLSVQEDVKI

[10] = target: BIKE (Homo sapiens, UniProt Q9NSY1); conditions: read-out: %Inh BIKE
BIKE, sequence (Q9NSY1 whole entry): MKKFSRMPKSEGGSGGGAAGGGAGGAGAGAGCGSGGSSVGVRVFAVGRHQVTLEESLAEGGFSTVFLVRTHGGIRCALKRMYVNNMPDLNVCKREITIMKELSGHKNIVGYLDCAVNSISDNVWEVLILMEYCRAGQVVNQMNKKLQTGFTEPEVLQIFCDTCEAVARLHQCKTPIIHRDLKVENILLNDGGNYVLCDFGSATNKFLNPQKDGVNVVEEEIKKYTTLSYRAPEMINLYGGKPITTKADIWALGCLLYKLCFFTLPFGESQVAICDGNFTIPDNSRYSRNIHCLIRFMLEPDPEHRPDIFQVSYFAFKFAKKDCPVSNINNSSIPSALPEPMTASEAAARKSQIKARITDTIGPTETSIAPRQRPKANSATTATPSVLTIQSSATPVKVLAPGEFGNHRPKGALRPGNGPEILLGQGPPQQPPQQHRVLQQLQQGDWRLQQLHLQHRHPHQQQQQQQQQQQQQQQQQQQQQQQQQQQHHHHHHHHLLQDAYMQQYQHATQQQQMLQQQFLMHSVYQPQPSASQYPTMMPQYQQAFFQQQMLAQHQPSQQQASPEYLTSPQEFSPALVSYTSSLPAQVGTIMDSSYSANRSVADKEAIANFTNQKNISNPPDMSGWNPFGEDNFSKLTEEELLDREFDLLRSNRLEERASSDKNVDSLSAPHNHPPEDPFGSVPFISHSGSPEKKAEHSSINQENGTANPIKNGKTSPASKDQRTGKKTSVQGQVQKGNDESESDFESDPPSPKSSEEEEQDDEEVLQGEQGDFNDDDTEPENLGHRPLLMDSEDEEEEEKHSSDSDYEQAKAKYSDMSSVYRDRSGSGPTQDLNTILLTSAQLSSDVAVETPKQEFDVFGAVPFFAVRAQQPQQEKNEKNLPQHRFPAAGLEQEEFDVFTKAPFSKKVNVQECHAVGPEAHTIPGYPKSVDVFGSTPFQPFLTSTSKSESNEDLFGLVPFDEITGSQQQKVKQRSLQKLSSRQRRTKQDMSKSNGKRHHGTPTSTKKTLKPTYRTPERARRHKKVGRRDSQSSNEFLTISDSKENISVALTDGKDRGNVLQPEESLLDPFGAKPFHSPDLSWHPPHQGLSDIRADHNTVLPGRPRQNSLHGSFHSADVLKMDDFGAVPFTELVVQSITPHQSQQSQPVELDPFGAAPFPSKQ

[11] = target: CAMK2D (Homo sapiens, UniProt Q13557); conditions: read-out: %Inh CAMK2D
[12] = target: DMPK2 (Homo sapiens, UniProt Q6DT37); conditions: read-out: %Inh DMPK2
DMPK2, sequence (Q6DT37 whole entry): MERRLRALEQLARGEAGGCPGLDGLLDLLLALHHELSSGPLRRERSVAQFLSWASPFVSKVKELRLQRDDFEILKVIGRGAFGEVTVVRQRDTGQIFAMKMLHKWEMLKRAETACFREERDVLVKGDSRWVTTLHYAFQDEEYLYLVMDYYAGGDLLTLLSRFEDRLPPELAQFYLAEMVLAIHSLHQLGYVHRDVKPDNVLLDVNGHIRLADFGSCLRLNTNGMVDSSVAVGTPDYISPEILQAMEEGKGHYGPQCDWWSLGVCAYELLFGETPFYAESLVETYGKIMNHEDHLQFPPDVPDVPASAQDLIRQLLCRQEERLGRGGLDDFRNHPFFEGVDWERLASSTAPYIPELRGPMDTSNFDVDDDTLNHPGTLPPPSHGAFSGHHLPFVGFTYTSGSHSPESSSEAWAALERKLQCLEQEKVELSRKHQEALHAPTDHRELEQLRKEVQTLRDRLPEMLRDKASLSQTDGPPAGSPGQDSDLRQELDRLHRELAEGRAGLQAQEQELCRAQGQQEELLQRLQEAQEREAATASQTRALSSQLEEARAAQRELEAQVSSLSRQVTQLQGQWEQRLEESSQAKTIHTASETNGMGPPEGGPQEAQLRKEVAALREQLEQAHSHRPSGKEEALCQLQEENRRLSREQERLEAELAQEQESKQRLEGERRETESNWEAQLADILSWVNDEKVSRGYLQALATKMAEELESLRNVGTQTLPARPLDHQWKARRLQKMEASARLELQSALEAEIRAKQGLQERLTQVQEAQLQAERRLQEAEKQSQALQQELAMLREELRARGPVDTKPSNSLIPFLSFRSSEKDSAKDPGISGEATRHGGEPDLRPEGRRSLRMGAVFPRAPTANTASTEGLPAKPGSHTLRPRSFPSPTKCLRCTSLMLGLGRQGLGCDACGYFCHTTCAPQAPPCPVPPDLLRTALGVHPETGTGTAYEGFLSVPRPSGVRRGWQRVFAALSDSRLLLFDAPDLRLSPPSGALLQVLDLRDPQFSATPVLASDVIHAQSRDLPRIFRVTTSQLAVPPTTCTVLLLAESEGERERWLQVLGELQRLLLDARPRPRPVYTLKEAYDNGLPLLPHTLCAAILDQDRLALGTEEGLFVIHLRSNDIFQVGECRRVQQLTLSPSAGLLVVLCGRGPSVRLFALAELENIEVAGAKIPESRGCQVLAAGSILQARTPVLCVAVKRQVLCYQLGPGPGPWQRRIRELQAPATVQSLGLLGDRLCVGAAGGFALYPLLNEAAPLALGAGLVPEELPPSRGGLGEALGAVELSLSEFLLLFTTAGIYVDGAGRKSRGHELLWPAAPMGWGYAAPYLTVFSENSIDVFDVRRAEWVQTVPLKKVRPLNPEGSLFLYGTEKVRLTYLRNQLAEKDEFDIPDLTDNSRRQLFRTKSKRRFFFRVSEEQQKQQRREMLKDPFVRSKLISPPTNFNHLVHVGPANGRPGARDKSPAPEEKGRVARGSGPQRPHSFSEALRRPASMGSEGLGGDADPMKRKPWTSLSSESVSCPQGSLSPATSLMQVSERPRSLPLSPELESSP

BRAF, sequence (P15056 whole entry): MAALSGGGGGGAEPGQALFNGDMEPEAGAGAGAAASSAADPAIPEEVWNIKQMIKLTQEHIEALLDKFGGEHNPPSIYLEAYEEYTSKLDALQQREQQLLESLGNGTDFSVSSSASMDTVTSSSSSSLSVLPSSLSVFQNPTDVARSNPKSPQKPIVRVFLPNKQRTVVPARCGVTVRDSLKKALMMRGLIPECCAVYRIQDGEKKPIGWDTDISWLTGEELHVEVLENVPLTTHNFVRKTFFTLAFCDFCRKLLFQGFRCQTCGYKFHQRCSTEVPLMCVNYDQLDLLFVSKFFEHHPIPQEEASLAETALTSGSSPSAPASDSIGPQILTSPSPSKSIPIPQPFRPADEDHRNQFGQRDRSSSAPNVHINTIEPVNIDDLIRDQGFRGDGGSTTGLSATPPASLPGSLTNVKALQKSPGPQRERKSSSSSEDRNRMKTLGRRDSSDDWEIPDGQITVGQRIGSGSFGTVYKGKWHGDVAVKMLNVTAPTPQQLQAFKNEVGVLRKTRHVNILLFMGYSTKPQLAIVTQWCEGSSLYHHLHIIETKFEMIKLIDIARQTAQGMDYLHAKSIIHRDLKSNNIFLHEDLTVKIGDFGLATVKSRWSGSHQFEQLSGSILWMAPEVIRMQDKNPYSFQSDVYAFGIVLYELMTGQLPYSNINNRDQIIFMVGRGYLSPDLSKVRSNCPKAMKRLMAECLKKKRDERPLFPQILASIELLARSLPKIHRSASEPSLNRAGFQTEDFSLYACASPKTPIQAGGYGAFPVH

| Compound | inhibition at 1 µM [1] | inhibition at 1 µM [2] | inhibition at 1 µM [3] | inhibition at 1 µM [4] | inhibition at 1 µM [5] | inhibition at 1 µM [6] | inhibition at 1 µM [7] | inhibition at 1 µM [8] | inhibition at 1 µM [9] | inhibition at 1 µM [10] | inhibition at 1 µM [11] | inhibition at 1 µM [12] |
| --- | --- | --- | --- | --- | --- | --- | --- | --- | --- | --- | --- | --- |
| COc1cccc(OC)c1C(=O)Nc1cccc(-c2nn3ccccc3c2-c2ccnc(Nc3cccc(F)c3)n2)c1 [UNC10225310A] | 17% | 11% | 4% | 0% | 13% | 21% | 0% | 25% | 15% | 0% | 0% | 84% |
| Cc1ccc(NC(=O)Nc2cccc(C(F)(F)F)c2)cc1 [UNC10225187A] | 0% | 3% | 17% | 0% | 0% | 36% | 10% | 0% | 85% | 4% | 8% | 0% |
| O=c1cc(N2CCOCC2)nc2n(Cc3cccc(Cl)c3Cl)c(C3CC3)nn12 [UNC10225469A] | 0% | 15% | 7% | 0% | 0% | 25% | 5% | 0% | 0% | 0% | 18% | 0% |
| CS(=O)(=O)Cc1ccc(Nc2nccc(-c3c(-c4cccc(NC(=O)C5CCCCC5)c4)nn4ncccc34)n2)cc1 [UNC10225159A] | 20% | 14% | 6% | 0% | 0% | 10% | 0% | 7% | 0% | 1% | 0% | 35% |
| Cn1cc(-c2cnc(N)c3c(-c4ccc5c(c4)CCN5C(=O)Cc4ccccc4)csc23)cn1 [UNC10225012A] | 0% | 32% | 11% | 0% | 0% | 19% | 0% | 21% | 9% | 0% | 0% | 81% |

From paper PMC5540273, “Progress towards a public chemogenomic set for protein kinases and a call for contributions” (PLoS ONE, 2017)
